Measurements from patent US20260207615A1, “FLUOROPYRIDOPYRIMIDINE AND FLUOROQUINAZOLINE DERIVATIES AND METHODS OF USE THEREOF” (Frontier Medicines Corporation, priority 2022, published 2026).

Target: T1, KRAS G12C and cRAF interaction (Homo sapiens, UniProt P01116, C118S/C51S/C80L/G12C)
T1 construct: truncated version comprising amino acids 1-169
Experiment: Inhibition of KRAS G12C and cRAF binding (AlphaScreen)
Format: biochemical
Conditions: KRAS G12C (Cys-light, aa 1-169) preloaded with GMPPNP, cRaf RBD (aa 50-131), 2 hours incubation
Experimental: The AlphaScreen technology was used to determine IC50s for compound inhibition of KRAS G12C (present as the Cys-light (C51S, C80L and C118S), truncated version comprising amino acids 1-169) and cRAF interaction. Compounds were diluted in 100% DMSO and each compound concentration was spotted at 200 nl/well onto low volume, white 384 well plates. The KRAS G12C contained a biotin-AviTag and the cRaf, as Ras-binding domain (amino acids 50-131, RBD), was GST-tagged. KRAS G12C was preloaded with the GTP analogue Guanosine 5′-[β,γ-imido]triphosphate (GMPPNP). The KRAS G12C was diluted in 25 mM Hepes, pH 7.4, 150 mM NaCl, 5 mM MgCl2, 0.01% TritonX-100 and 10 μM GMPPNP and added at 10 μl/well to compound-spotted plates resulting in a DMSO concentration of 2%. Plates were incubated for 2 hours. A mixture of RBD and the AlphaScreen streptavidin donor and glutathione acceptor beads diluted in 25 mM Hepes, pH 7.4, 150 mM NaCl, 5 mM MgCl2, 0.01% TritonX-100 and 2% DMSO was then added at 10 μl/well and incubated for 60-90 minutes before the samples were read for emission at 570 nm after excitation of the donor beads at 680 nm. All incubations were performed at room temperature. The final top compound concentration was 50 μM with 1:3 titrations for 10-point dose response curves. Final assay conditions were 0.5 nM KRAS G12C, 0.75 nM RBD and 5 μg/ml each of AlphaScreen donor and acceptor beads. IC50S were determined using nonlinear regression fit of [inhibitor] vs. response (4 parameters).
A counter assay was also set up to rule out inhibitors of the AlphaScreen technology itself. Compound plates were incubated for 2 hours as above with buffer only.
The AlphaScreen beads were added as above except biotin-AviTag-GST was substituted for the RBD. Samples were read and analyzed as above.

T1 sequence (P01116 1-169 isoform P01116-2 G12C/C51S/C80L/C118S): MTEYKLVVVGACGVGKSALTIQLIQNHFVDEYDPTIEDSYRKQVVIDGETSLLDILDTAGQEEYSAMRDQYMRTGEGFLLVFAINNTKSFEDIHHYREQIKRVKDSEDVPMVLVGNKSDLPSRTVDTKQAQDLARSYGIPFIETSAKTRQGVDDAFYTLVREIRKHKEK

| Structure (SMILES) | IC50 |
| --- | --- |
| CN(C)C/C=C/C(=O)N1CCN(c2nc(OC[C@@]34CCCN3C[C@H](F)C4)nc3c(F)c(-c4cccc5cccc(Cl)c45)ncc23)CC12COC2 [Example 25, (E)-1-(8-(7-(8-chloronaphthalen-1-yl)-8-fluoro-2-(((2R,7aS)-2-fluorotetrahydro-1H-pyrrolizin-7a(5H)-yl)methoxy)pyrido[4,3-d]pyrimidin-4-yl)-2-oxa-5,8-diazaspiro[3.5]nonan-5-yl)-4-(dimethylamino)but-2-en-1-one] | 0.01 to 0.1 µM |
| O=C(/C=C/CN1[C@@H]2CC[C@H]1COC2)N1CCN(c2nc(OC[C@@]34CCCN3C[C@H](F)C4)nc3c(F)c(-c4ccccc4C(F)F)ncc23)CC12COC2 [Example 26, (E)-4-((1R,5S)-3-oxa-8-azabicyclo[3.2.1]octan-8-yl)-1-(8-(7-(2-(difluoromethyl)phenyl)-8-fluoro-2-(((2R,7aS)-2-fluorotetrahydro-1H-pyrrolizin-7a(5H)-yl)methoxy)pyrido[4,3-d]pyrimidin-4-yl)-2-oxa-5,8-diazaspiro[3.5]nonan-5-yl) but-2-en-1-one] | 0.1 to 0.5 µM |
| Cc1cc(/C=C/C(=O)N2CCN(c3nc(OC[C@@]45CCCN4C[C@H](F)C5)nc4c(F)c(-c5cccc6ccc(F)c(Cl)c56)ncc34)CC23COC3)nc(C)n1 [Example 27, (E)-1-(8-(7-(8-chloro-7-fluoronaphthalen-1-yl)-8-fluoro-2-(((2R,7aS)-2-fluorotetrahydro-1H-pyrrolizin-7a(5H)-yl)methoxy)pyrido[4,3-d]pyrimidin-4-yl)-2-oxa-5,8-diazaspiro[3.5]nonan-5-yl)-3-(2,6-dimethylpyrimidin-4-yl) prop-2-en-1-one] | 0.01 to 0.1 µM |
| Cc1cc(/C=C/C(=O)N2CCN(c3nc(OC[C@@]45CCCN4C[C@H](F)C5)nc4c(F)c(-c5cccc(Cl)c5C5CC5)ncc34)CC23COC3)nc(C)n1 [Example 28, (E)-1-(8-(7-(3-chloro-2-cyclopropylphenyl)-8-fluoro-2-(((2R,7aS)-2-fluorotetrahydro-1H-pyrrolizin-7a(5H)-yl)methoxy)pyrido[4,3-d]pyrimidin-4-yl)-2-oxa-5,8-diazaspiro[3.5]nonan-5-yl)-3-(2,6-dimethylpyrimidin-4-yl) prop-2-en-1-one] | ≥ 0.5 µM |
| Cc1cc(/C=C/C(=O)N2CCN(c3nc(OC[C@@]45CCCN4C[C@H](F)C5)nc4c(F)c(-c5cccc6ccc(F)c(F)c56)ncc34)CC23COC3)nc(C)n1 [Example 32, (E)-1-(8-(7-(7,8-difluoronaphthalen-1-yl)-8-fluoro-2-(((2R,7aS)-2-fluorotetrahydro-1H-pyrrolizin-7a(5H)-yl)methoxy)pyrido[4,3-d]pyrimidin-4-yl)-2-oxa-5,8-diazaspiro[3.5]nonan-5-yl)-3-(2,6-dimethylpyrimidin-4-yl) prop-2-en-1-one] | 0.01 to 0.1 µM |
| C=CC(=O)N1CCN(c2nc(OC[C@@]34CCCN3C[C@H](F)C4)nc3c(F)c(-c4cccc5ccc(F)c(Cl)c45)ncc23)CC12COC2 [Example 33, 1-(8-(7-(8-chloro-7-fluoronaphthalen-1-yl)-8-fluoro-2-(((2R,7aS)-2-fluorotetrahydro-1H-pyrrolizin-7a(5H)-yl)methoxy)pyrido[4,3-d]pyrimidin-4-yl)-2-oxa-5,8-diazaspiro[3.5]nonan-5-yl) prop-2-en-1-one] | 0.01 to 0.1 µM |
| C=CC(=O)N1CCN(c2nc(OC[C@@]34CCCN3C[C@H](F)C4)nc3c(F)c(-c4cccc5ccc(F)c(F)c45)ncc23)CC12COC2 [Example 35, 1-(8-(7-(7,8-difluoronaphthalen-1-yl)-8-fluoro-2-(((2R,7aS)-2-fluorotetrahydro-1H-pyrrolizin-7a(5H)-yl)methoxy)pyrido[4,3-d]pyrimidin-4-yl)-2-oxa-5,8-diazaspiro[3.5]nonan-5-yl) prop-2-en-1-one] | < 0.01 µM |
| O=C(/C=C/CN1[C@@H]2CC[C@H]1COC2)N1CCN(c2nc(OCC34CCCN3CCC4)nc3c(F)c(-c4cccc5cccc(Cl)c45)ncc23)CC12COC2 [Example 36, (E)-4-((1R,5S)-3-oxa-8-azabicyclo[3.2.1]octan-8-yl)-1-(8-(7-(8-chloronaphthalen-1-yl)-8-fluoro-2-((tetrahydro-1H-pyrrolizin-7a(5H)-yl)methoxy)pyrido[4,3-d]pyrimidin-4-yl)-2-oxa-5,8-diazaspiro[3.5]nonan-5-yl) but-2-en-1-one] | < 0.01 µM |
| CN1CC[C@@H]1/C=C/C(=O)N1CCN(c2nc(OC[C@@]34CCCN3C[C@H](F)C4)nc3c(F)c(-c4cccc5cccc(Cl)c45)ncc23)CC12COC2 [Example 37, (E)-1-(8-(7-(8-chloronaphthalen-1-yl)-8-fluoro-2-(((2R,7aS)-2-fluorotetrahydro-1H-pyrrolizin-7a(5H)-yl)methoxy)pyrido[4,3-d]pyrimidin-4-yl)-2-oxa-5,8-diazaspiro[3.5]nonan-5-yl)-3-((R)-1-methylazetidin-2-yl) prop-2-en-1-one] | 0.01 to 0.1 µM |
| C=CC(=O)N1CCN(c2nc(OC[C@@]34CCCN3C[C@H](F)C4)nc3c(F)c(-c4cccc(Cl)c4C4CC4)ncc23)CC12COC2 [Example 38, 1-(8-(7-(3-chloro-2-cyclopropylphenyl)-8-fluoro-2-(((2R,7aS)-2-fluorotetrahydro-1H-pyrrolizin-7a(5H)-yl)methoxy)pyrido[4,3-d]pyrimidin-4-yl)-2-oxa-5,8-diazaspiro[3.5]nonan-5-yl) prop-2-en-1-one] | 0.01 to 0.1 µM |
| C=CC(=O)N1CCN(c2nc(OC[C@@]34CCCN3C[C@H](F)C4)nc3c(F)c(-c4cccc(Cl)c4C(F)(F)F)ncc23)CC12COC2 [Example 39, 1-(8-(7-(3-chloro-2-(trifluoromethyl)phenyl)-8-fluoro-2-(((2R,7aS)-2-fluorotetrahydro-1H-pyrrolizin-7a(5H)-yl)methoxy)pyrido[4,3-d]pyrimidin-4-yl)-2-oxa-5,8-diazaspiro[3.5]nonan-5-yl) prop-2-en-1-one] | 0.01 to 0.1 µM |

Second part, the compound after the results:

| IC50 | Structure (SMILES) |
| --- | --- |
| < 0.01 µM | O=C(/C=C/CN1[C@@H]2CC[C@H]1COC2)N1CCN(c2nc(OC[C@@]34CCCN3C[C@H](F)C4)nc3c(F)c(-c4cccc(Cl)c4C4CC4)ncc23)CC12COC2 [Example 24, (E)-4-((1R,5S)-3-oxa-8-azabicyclo[3.2.1]octan-8-yl)-1-(8-(7-(3-chloro-2-cyclopropylphenyl)-8-fluoro-2-(((2R,7aS)-2-fluorotetrahydro-1H-pyrrolizin-7a(5H)-yl)methoxy)pyrido[4,3-d]pyrimidin-4-yl)-2-oxa-5,8-diazaspiro[3.5]nonan-5-yl) but-2-en-1-one] |
| < 0.01 µM | O=C(/C=C/CN1[C@@H]2CC[C@H]1COC2)N1CCN(c2nc(OC[C@@]34CCCN3C[C@H](F)C4)nc3c(F)c(-c4cc(O)cc(Cl)c4C4CC4)ncc23)CC12COC2 [Example 29, (E)-4-((1R,5S)-3-oxa-8-azabicyclo[3.2.1]octan-8-yl)-1-(8-(7-(3-chloro-2-cyclopropyl-5-hydroxyphenyl)-8-fluoro-2-(((2R,7aS)-2-fluorotetrahydro-1H-pyrrolizin-7a(5H)-yl)methoxy)pyrido[4,3-d]pyrimidin-4-yl)-2-oxa-5,8-diazaspiro[3.5]nonan-5-yl) but-2-en-1-one] |
| < 0.01 µM | O=C(/C=C/CN1CCOCC1)N1CCN(c2nc(OC[C@@]34CCCN3C[C@H](F)C4)nc3c(F)c(-c4cc(O)cc(Cl)c4C4CC4)ncc23)CC12COC2 [Example 30, (E)-1-(8-(7-(3-chloro-2-cyclopropyl-5-hydroxyphenyl)-8-fluoro-2-(((2R,7aS)-2-fluorotetrahydro-1H-pyrrolizin-7a(5H)-yl)methoxy)pyrido[4,3-d]pyrimidin-4-yl)-2-oxa-5,8-diazaspiro[3.5]nonan-5-yl)-4-morpholinobut-2-en-1-one] |
| < 0.01 µM | C=CC(=O)N1CCN(c2nc(OC[C@@]34CCCN3C[C@H](F)C4)nc3c(F)c(-c4cc(O)cc(Cl)c4C4CC4)ncc23)CC12COC2 [Example 31, 1-(8-(7-(3-chloro-2-cyclopropyl-5-hydroxyphenyl)-8-fluoro-2-(((2R,7aS)-2-fluorotetrahydro-1H-pyrrolizin-7a(5H)-yl)methoxy)pyrido[4,3-d]pyrimidin-4-yl)-2-oxa-5,8-diazaspiro[3.5]nonan-5-yl) prop-2-en-1-one] |
| < 0.01 µM | C#Cc1c(F)ccc2cccc(-c3ncc4c(N5CCN(C(=O)/C=C/CN6[C@@H]7CC[C@H]6COC7)C6(COC6)C5)nc(OC[C@@]56CCCN5C[C@H](F)C6)nc4c3F)c12 [Example 34, (E)-4-((1R,5S)-3-oxa-8-azabicyclo[3.2.1]octan-8-yl)-1-(8-(7-(8-ethynyl-7-fluoronaphthalen-1-yl)-8-fluoro-2-(((2R,7aS)-2-fluorotetrahydro-1H-pyrrolizin-7a(5H)-yl)methoxy)pyrido[4,3-d]pyrimidin-4-yl)-2-oxa-5,8-diazaspiro[3.5]nonan-5-yl) but-2-en-1-one] |
